Source: publication PMC11172478, “1,3,5-Triazine as Branching Connector for the Construction of Novel Antimicrobial Peptide Dendrimers: Synthesis and Biological Characterization” (International Journal of Molecular Sciences, 2024)
Values after ≈ are worked out from the molar mass of the structure shown. Starred links: 1 amine or outer side, 2 acyl side, 3 side chain; linkers in the order of their positions; H or OH if unused. Positions of bridges follow the written chain, without caps; N, C: chain ends. Non-standard residues stand in square brackets, D forms with d. Residues, ends and D or L forms follow the SMILES beside them. Chains are numbered I, II in the order given. *: point of attachment. X3 = CC(=O)NCCNc1nc(NCCNC(C)=O)nc(N([C@@H](CC(C)C)C(=O)[*:2])[*:1])n1; X4 = CC(=O)NCCNc1nc(NCCNC(C)=O)nc(Oc2ccc(C(=O)*)cc2)n1

Assays:
Format in all cases: cell-based
E. coli ATCC 25922 = conditions: ATCC 25922, 24 h
Experimental: (§1) The antimicrobial activity of the dendrimers was evaluated against E. coli ATCC 25922, P. aeruginosa ATCC 27853 and S. aureus ATCC 29213 strains. The MIC values were determined by the broth microdilution method. Briefly, the different strains were grown in Muller Hinton broth cation adjusted (MHBCA) medium overnight at 37 °C with shaking at 200 rpm. The bacterial cultures were then adjusted to OD625nm of 0.08–0.1, and 5 μL of each diluted suspension was added to 96-well plates previously filled with MHBCA and serially diluted peptides. Plates were incubated for 24 h at 37 °C. Finally, the MIC was determined macroscopically, based on the visual turbidity of the wells.

S. aureus ATCC 29213 = conditions: ATCC 29213, 24 h
Experimental: as §1

P. aeruginosa ATCC 27853 = conditions: ATCC 27853, 24 h
Experimental: as §1

| SMILES | MIC E. coli ATCC 25922 (E. coli ATCC 25922) [mg/L] | MIC S. aureus ATCC 29213 (S. aureus ATCC 29213) [mg/L] | MIC P. aeruginosa ATCC 27853 (P. aeruginosa ATCC 27853) [mg/L] |
| --- | --- | --- | --- |
| CC(=O)NCCNc1nc(NCCNC(C)=O)nc(N[C@@H](CC(C)C)C(=O)N[C@@H](CCCCN)C(=O)N[C@@H](CC(C)C)C(=O)N[C@@H](CCCCN)C(=O)N[C@@H](CC(C)C)C(=O)N[C@@H](CCCCN)C(N)=O)n1 [E, (Ac-EDA)2-TA-(LK)3-NH2] (H-[X3]KLKLK-NH2) | >64 | >64 | >64 |
| CC(C)C[C@H](NC(=O)[C@H](CCCCN)NC(=O)[C@H](CC(C)C)NC(=O)[C@H](CCCCN)NC(=O)[C@@H](N)CC(C)C)C(=O)N[C@@H](CCCCN)C(N)=O [A, H-Leu-Lys-Leu-Lys-Leu-Lys-NH2] (H-LKLKLK-NH2) | >64 | >64 | >64 |
| CC(C)C[C@H](NC(=O)[C@H](CCCCN)NC(=O)[C@H](CC(C)C)NC(=O)[C@H](CCCCN)NC(=O)[C@H](CC(C)C)NC(=O)[C@H](CCCCN)NC(=O)[C@H](CC(C)C)NC(=O)[C@H](CCCCN)NC(=O)[C@H](CC(C)C)NC(=O)[C@H](CCCCN)NC(=O)[C@H](CC(C)C)NC(=O)[C@H](CCCCN)NC(=O)[C@H](CC(C)C)NC(=O)[C@H](CCCCN)NC(=O)[C@H](CC(C)C)NC(=O)[C@H](CCCCN)NC(=O)[C@@H](N)CC(C)C)C(=O)N[C@@H](CCCCN)C(N)=O [G, H-(Leu-Lys)9-NH2] (H-LKLKLKLKLKLKLKLKLK-NH2) | >64 | >64 | >64 |
| CC(C)C[C@H](NC(=O)[C@H](CCCCN)NC(=O)[C@H](CC(C)C)NC(=O)[C@H](CCCCN)NC(=O)[C@H](CC(C)C)NC(=O)[C@H](CCCCNC(=O)[C@H](CCCCN)NC(=O)[C@H](CC(C)C)NC(=O)[C@H](CCCCN)NC(=O)[C@H](CC(C)C)NC(=O)[C@H](CCCCN)NC(=O)[C@@H](N)CC(C)C)NC(=O)[C@H](CCCCN)NC(=O)[C@H](CC(C)C)NC(=O)[C@H](CCCCN)NC(=O)[C@H](CC(C)C)NC(=O)[C@H](CCCCN)NC(=O)[C@@H](N)CC(C)C)C(=O)N[C@@H](CCCCN)C(N)=O [F, H-[(LK)3]2-K-(LK)3-NH2] (I: H-LKLKLKKLKLKLK-NH2 / II: H-LKLKLK; amide I:7-II:C) | 32 (≈ 13.8 µM) | 64 (≈ 27.6 µM) | >64 |
| CC(=O)NCCNc1nc(NCCNC(C)=O)nc(Oc2ccc(C(=O)NCC(=O)N[C@@H](Cc3ccccc3)C(=O)N[C@@H](CC(C)C)C(N)=O)cc2)n1 [C, (Ac-EDA)2-TA-PHBA-GFL-NH2] | >64 | >64 | >64 |
| CC(=O)NCCNc1nc(NCCNC(C)=O)nc(Oc2ccc(C(=O)N[C@@H](CC(C)C)C(=O)N[C@@H](CCCCN)C(=O)N[C@@H](CC(C)C)C(=O)N[C@@H](CCCCN)C(=O)N[C@@H](CC(C)C)C(=O)N[C@@H](CCCCN)C(N)=O)cc2)n1 [D, (Ac-EDA)2-TA-PHBA-(LK)3-NH2] (X4-LKLKLK-NH2) | >64 | >64 | >64 |
| CC(C)C[C@H](NC(=O)[C@H](Cc1ccccc1)NC(=O)CNC(=O)c1ccc(Oc2nc(NCCNC(=O)[C@H](CCCCN)NC(=O)[C@H](CC(C)C)NC(=O)[C@H](CCCCN)NC(=O)[C@H](CC(C)C)NC(=O)[C@H](CCCCN)NC(=O)[C@@H](N)CC(C)C)nc(NCCNC(=O)[C@H](CCCCN)NC(=O)[C@H](CC(C)C)NC(=O)[C@H](CCCCN)NC(=O)[C@H](CC(C)C)NC(=O)[C@H](CCCCN)NC(=O)[C@@H](N)CC(C)C)n2)cc1)C(N)=O [B, H-[(LK)3-EDA]2-TA-PHBA-GFL-NH2] | 64 (≈ 30.5 µM) | >64 | 32 (≈ 15.3 µM) |
